Laboratory results from patent US20250270212A1, “CHIMERIC COMPOUNDS USEFUL IN TREATING DISEASES” (Padarn Therapeutics, Inc., priority 2021, published 2025).
Read-outs that look alike come from different tables or passages of the source.

Legend:
MDA-MB-231 = test: Cellular growth inhibition assay (CellTiter-Glo); type: cell-based; settings: Homo sapiens
Method: Example E. Cellular Growth Inhibition Assay
HEK293 (Institute of Cytology Russian Academy of Science), MDA-MB-231 (ATCC, CRM-HTB-26), HCC1395 (ATCC, CRL-2324), HCC1937 (ATCC, CRL-2336), UWB1.289+BRCA1 (ATCC, CRL-2946) were seeded at a density of 500 cells per well in a 384-well clear bottom plate (Greiner Cat #781090) in 45 μl total volume of DMEM (PanEco, Cat #C420) or RPMI (PanEco, Cat #C330) or RPMI/MEBM (Lonza, Cat #CC-3151+CC-4136) with 10% FBS (HyClone, Cat #SV30160.03). Cells were allowed to adhere overnight at 370 C, 5% CO2. 500× compounds solutions in DMSO (Sigma Cat #D2650) were prepared into Cmpnds plate (Diamond Well Plate, Axigen, Cat #P-384-120SQ-C-S) and DMSO only control was included. 1 μl of 500× compounds (Cmpnds plate) was added to 49 μl of culture medium into Dilution plate (Diamond Well Plate, Axigen, Cat #P-384-120SQ-C-S), mixed and then 5 μl of 10× compounds solutions were transferred to cells followed by centrifugation at 100 g for 1 min. Final DMSO concentration was 0.2%. After 3 days of incubation, 10 μl of 1× compounds were added to cells. […]

recombinant Wee1 protein = recombinant Wee1 protein (Homo sapiens (Human), UniProt P30291); test: Wee1 enzymatic activity inhibition, ADP-Glo luminescence assay; type: biochemical; settings: recombinant Wee1, PolyE4Y1 substrate, 1 h room temperature
Sequence of recombinant Wee1 protein (P30291 whole entry): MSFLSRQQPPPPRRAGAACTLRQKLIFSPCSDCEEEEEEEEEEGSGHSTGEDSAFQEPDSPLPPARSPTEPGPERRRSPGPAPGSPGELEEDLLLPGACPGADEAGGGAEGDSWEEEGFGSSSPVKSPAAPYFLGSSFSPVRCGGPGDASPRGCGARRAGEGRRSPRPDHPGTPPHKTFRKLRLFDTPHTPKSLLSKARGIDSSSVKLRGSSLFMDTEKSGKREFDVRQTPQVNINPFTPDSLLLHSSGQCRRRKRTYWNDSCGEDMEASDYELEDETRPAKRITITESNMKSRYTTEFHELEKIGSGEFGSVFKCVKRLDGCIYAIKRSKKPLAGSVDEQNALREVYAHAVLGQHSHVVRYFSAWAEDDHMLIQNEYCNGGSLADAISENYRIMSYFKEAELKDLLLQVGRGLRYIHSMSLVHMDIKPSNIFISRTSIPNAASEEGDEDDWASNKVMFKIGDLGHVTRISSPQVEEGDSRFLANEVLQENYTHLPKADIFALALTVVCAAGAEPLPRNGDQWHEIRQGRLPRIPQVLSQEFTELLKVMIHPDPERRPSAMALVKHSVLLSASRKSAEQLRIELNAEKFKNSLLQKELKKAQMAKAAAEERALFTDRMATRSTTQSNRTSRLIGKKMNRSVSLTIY
Method: Example A. Primary Assay Used to Determine Potency of Wee1 Enzymatic Activity Inhibition
Compound activity was determined using recombinant Wee1 protein (BPS, Cat #40412) and PolyE4Y1 Substrate (Poly(Glu,Tyr) sodium salt, Sigma, Cat #P0275-25MG) in an in vitro enzymatic reaction. The enzymatic assay used to determine activity was a Luminescence assay using a Microplate Reader (BMG, ClarioStar Plus). The enzymatic reaction was carried out in assay buffer (40 mM TRIS-HCl pH 7.4-7.6, 20 mM MgCl2, 0.05 mM DTT, 0.1 mg/ml BSA, 5 mM MnCl2). The compounds were dispensed on a 384 well Diamond Well Plate (Axigen, Cat #P-384-120SQ-C-S) using the Biomek FX liquid handling system at 100× solutions of compounds in DMSO. 2×Wee1-PolyE4Y1 mix (final concentration 0.85 ng/μl of Wee1 and 0.2 μg/μl of PolyE4Y1) was prepared in 1× Assay buffer and 5.5 μl of mixture per well was added into 384w white Reaction plate with NBS (Corning, Cat #4513). 5.5 μl of PolyE4Y1 substrate w/o Wee1 in 1× buffer was used for negative control. Plates were centrifuged for 1 min at 100 g. Next step the Compounds were added to Reaction plate using Biomek station via following steps: 1 μl of 100× compounds (in DMSO) were mixed thoroughly with 49 μl of 2×10 μM ATP in Assay Buffer, then 5.5 μl of this mixture was added to Reaction plate with 5.5 μl of Wee1-PolyE4Y1 mix. Plates were centrifuged for 1 min at 100 g and incubated for 1 h at room temperature. Next 3 μL of ADP-Glo reagent (Promega, ADP-Glo™ Kinase Assay, Cat #V9102) per well was added. Plates were incubated for 30 minutes at room temperature. Then 6 μL of Kinase detection reagent (Promega, ADP-Glo™ Kinase Assay, Cat #V9102) per well was added and the Luminescence was measured using Microplate Reader. The % inhibition was then used to calculate the IC50 values. The IC50 values are shown in Table A, wherein “A” corresponds to IC50<0.01 μM, “B” corresponds to 0.01 μM≤IC50<0.1 μM, “C” 0.1 μM≤IC50<1 μM, and “D” corresponds to […].

[1] = target: recombinant PARP1 (AA662-1014) protein (Homo sapiens (Human), UniProt P09874); test: Tracer displacement fluorescence polarization assay; settings: displacement of AlexaFluor488 tracer from NAD+-binding site, PARP1 25 nM
Sequence of recombinant PARP1 (AA662-1014) protein (P09874 662-1014): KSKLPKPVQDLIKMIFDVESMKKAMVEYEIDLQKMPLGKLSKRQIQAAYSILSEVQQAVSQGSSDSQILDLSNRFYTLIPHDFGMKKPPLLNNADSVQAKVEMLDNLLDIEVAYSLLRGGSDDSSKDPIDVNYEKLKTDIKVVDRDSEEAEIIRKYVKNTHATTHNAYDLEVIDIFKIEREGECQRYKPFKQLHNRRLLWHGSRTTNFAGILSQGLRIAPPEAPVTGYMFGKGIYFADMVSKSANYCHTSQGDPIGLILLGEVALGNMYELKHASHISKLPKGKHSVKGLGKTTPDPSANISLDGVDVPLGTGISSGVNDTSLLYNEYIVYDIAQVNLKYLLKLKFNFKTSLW
Method: Example B. Tracer Displacement Fluorescence Polarization Assays
Displacement of AlexaFlour488 marked tracer from the NAD+-binding site of recombinant PARP1 (AA662-1014) protein (OriGene, Cat #: AR09368PU-L) was measured in vitro using Fluorescence polarization assay. The reaction was carried out in assay buffer (50 mM TRIS-HCl pH 7.4-7.8, 150 mM NaCl, 10 mM MgCl2, 0.001% Triton-X). 2×PARP1 (final concentration 25 nM) was diluted in 1× Assay buffer and 10 μl of the solution per well was added into 384-well Black Non-Treated Reaction plate (Corning, Cat #4511). Plates were centrifuged for 1 min at 200 g. The compounds were prepared in a 384-well Diamond Well Plate (Axygen, Cat #P-384-120SQ-C-S) as 400× solutions in DMSO and were transferred into Reaction plate using the Biomek FX liquid handling system with intermediate dilution down to 10× working solution in assay buffer in a separate 384-well Diamond Well Plate (Axygen, Cat #P-384-120SQ-C-S) (2 μl per well). Plates were centrifuged for 1 min at 200 g and incubated for 15 min at room temperature in the dark. Then 8 μL per well of 2.5× Tracer AlexaFluor488 (final concentration 1 nM) diluted in 1× Assay buffer was added into Reaction plate. 1× Assay buffer was used to make blank samples for instrument calculations. Plates were incubated for 30 minutes at room temperature in the dark. Fluorescence polarization was measured using Microplate Reader (BMG, ClarioStar Plus). The % tracer displacement was used to calculate the IC50 values. The IC50 values are shown in Table A, wherein “A” corresponds to IC50<0.01 μM, “B” corresponds to 0.01 μM≤IC50<0.1 μM, “C” 0.1 μM≤IC50<[…], and “D” corresponds to […].

[2] = 120 h, MDA-MB-231, 5 days, read-out: MDA-MB-231 EC50 (μM) 5 days
[3] = 168 h, MDA-MB-231, 7 days, read-out: MDA-MB-231 EC50 (μM) 7 days
[4] = 240 h, MDA-MB-231, 10 days, read-out: MDA-MB-231 EC50 (μM) 10 days

Structure (SMILES)	EC50 (MDA-MB-231; [2]) [µM]	EC50 (MDA-MB-231; [3]) [µM]	EC50 (MDA-MB-231; [4]) [µM]	EC50 (recombinant Wee1 protein) [nM]	EC50 [1] [nM]
C=CCn1c(=O)c2cnc(Nc3ccc(N4CCN(C(=O)c5cc(Cc6n[nH]c(=O)c7ccccc67)ccc5F)CC4)cc3)nc2n1-c1ccccn1 [Compound 10, 4-{3-[(4-{4-[(2-Allyl-3-oxo-1-pyridin-2-yl-2,3-dihydro-1H-pyrazolo[3,4-d]pyrimidin-6-yl)amino]phenyl}piperazin-1-yl)carbonyl]-4-fluorobenzyl}phthalazin-1(2H)-one]	4.89	2.59	1.49	10 to 100	< 10
Cn1c(=O)c2cnc(Nc3ccc(N4CCN(C(=O)c5cc(Cc6n[nH]c(=O)c7ccccc67)ccc5F)CC4)cc3)nc2n1-c1ncccn1 [Compound 11, 4-{4-Fluoro-3-[(4-{4-[(2-methyl-3-oxo-1-pyrimidin-2-yl-2,3-dihydro-1H-pyrazolo[3,4-d]pyrimidin-6-yl)amino]phenyl}piperazin-1-yl)carbonyl]benzyl}phthalazin-1(2H)-one]	8.76	6.28	3.6	10 to 100	< 10
Cn1c(=O)c2cnc(Nc3ccc(N4CCN(C(=O)c5cc(Cn6c(=O)[nH]c(=O)c7c(F)cccc76)ccc5F)CC4)cc3)nc2n1-c1ccccn1 [Compound 18, 5-Fluoro-1-{4-fluoro-3-[(4-{4-[(2-methyl-3-oxo-1-pyridin-2-yl-2,3-dihydro-1H-pyrazolo[3,4-d]pyrimidin-6-yl)amino]phenyl}piperazin-1-yl)carbonyl]benzyl}quinazoline-2,4(1H,3H)-dione]	> 10	–	–	10 to 100	< 10
Cn1c(=O)c2cnc(Nc3ccc(NC(=O)c4cc(Cn5c(=O)[nH]c(=O)c6c(F)cccc65)ccc4F)cc3)nc2n1-c1ccccn1 [Compound 33, 2-Fluoro-5-[(5-fluoro-2,4-dioxo-3,4-dihydroquinazolin-1(2H)-yl)methyl]-N-{4-[(2-methyl-3-oxo-1-pyridin-2-yl-2,3-dihydro-1H-pyrazolo[3,4-d]pyrimidin-6-yl)amino]phenyl}benzamide]	> 10	–	–	100 to 1000	≥ 1
C=CCn1c(=O)c2cnc(Nc3ccc(N4CCN(Cc5ccc(-c6[nH]c7cc(F)cc8c7c6CCNC8=O)cc5)CC4)cc3)nc2n1-c1cccc(C(C)(C)O)n1 [Compound 35, 2-[4-({4-[4-({2-Allyl-1-[6-(1-hydroxy-1-methylethyl)pyridin-2-yl]-3-oxo-2,3-dihydro-1H-pyrazolo[3,4-d]pyrimidin-6-yl}amino)phenyl]piperazin-1-yl}methyl)phenyl]-8-fluoro-1,3,4,5-tetrahydro-6H-azepino[5,4,3-cd]indol-6-one]	0.98	0.57	0.08	10 to 100	10 to 100
